Results: publication PMC12703733, “Probing Guanidino Pendant or Bridged Groups in Cyclic Antimicrobial Peptides Derived from Temporin L: A Strategy to Improve Efficacy against Gram-Negative Bacteria” (Journal of Medicinal Chemistry, 2025)
≈ marks a conversion by molar mass, not a printed value. Like-named read-outs stand apart in the source and are kept apart here.

What was measured:
[1] = circular dichroism; details: water; pH ns; 25 °C; 150 uM
[2] = test system: B. megaterium BM11; assay: microbe, parasite or virus in culture; type: cell-based; details: BM11
Procedure: (§1) Bacterial strains used in this study were the Gram-positive S. aureus ATCC 25923, S. epidermidis ATCC 12228, B. megaterium BM11, S. [NT] 27591, E. faecalis ATCC 29212 and the Gram-negative E. coli ATCC 25922, P. aeruginosa ATCC 27853, A. baumannii ATCC 19606, E. coli D21 and P. aeruginosa PAO1. […] Bacterial cells in the mid log phase were diluted in Muller Hinton (MH) at a concentration of 2 × 10^6 cell/mL. […] Ciprofloxacin was used as antibiotic control. The plate was then incubated at 37 °C. MICs were obtained from three identical readings of four independent experiments.

[3] = test system: P. aeruginosa PAO1; assay: microbe, parasite or virus in culture; type: cell-based; details: PAO1
Procedure: as §1

[4] = test system: S. aureus ATCC 25923; assay: microbe, parasite or virus in culture; type: cell-based; details: ATCC 25923
Procedure: as §1

[5] = test system: E. coli D21; assay: microbe, parasite or virus in culture; type: cell-based; details: D21
Procedure: as §1

[6] = test system: S. agalactiae ATCC 27591; assay: microbe, parasite or virus in culture; type: cell-based; details: ATCC 27591
Procedure: as §1

[7] = test system: S. epidermidis ATCC 12228; assay: microbe, parasite or virus in culture; type: cell-based; details: ATCC 12228
Procedure: as §1

[8] = test system: P. aeruginosa ATCC 27853; assay: microbe, parasite or virus in culture; type: cell-based; details: ATCC 27853
Procedure: as §1

[9] = test system: A. baumannii ATCC 19606; assay: microbe, parasite or virus in culture; type: cell-based; details: ATCC 19606
Procedure: as §1

[10] = test system: E. faecalis ATCC 29212; assay: microbe, parasite or virus in culture; type: cell-based; details: ATCC 29212
Procedure: as §1

[11] = test system: E. coli ATCC 25922; assay: microbe, parasite or virus in culture; type: cell-based; details: ATCC 25922
Procedure: as §1

[12] = type: cell-based, human; details: human
Procedure: (§2) For the evaluation of peptides’ cytotoxicity, the human immortalized keratinocytes (HaCaT cells), purchased from AddexBio (San Diego, CA, USA), and BEAS-2B were used. HaCaT cells were cultured in Dulbecco’s modified Eagle’s medium supplemented with 4 mM glutamine (DMEM), 10% heat-inactivated fetal bovine serum (FBS), and 0.1 mg/mL of penicillin and streptomycin, at 37 °C and 5% CO2. BEAS-2B cells were cultured in RPMI, supplemented with 2 mM glutamine (DMEM), 10% heat-inactivated fetal bovine serum (FBS), 1 mM sodium pyruvate, and 0.1 mg/mL of penicillin and streptomycin, at 37 °C and 5% CO2. Cytotoxicity was tested in vitro using a colorimetric assay that relies on the intracellular reduction of the yellow 3-(4,5-dimethylthiazol-2-yl)-2,5-diphenyltetrazolium bromide salt (MTT) by mitochondrial dehydrogenases of metabolically active cells in formazan crystals (purple). About 4 × 10^4 HaCaT and BEAS-2B cells, suspended in DMEM supplemented with 2% FBS, were plated in triplicate wells of a 96-well microtiter plate. The plate was incubated overnight at 37 °C and 5% CO2. Then, the cells were treated with different concentrations of the peptide (from 100 to 3.12 μM) in a fresh serum-free medium for 2 h and for a longer time (24 h). Following peptide treatment, the medium was removed, and MTT (0.5 mg/mL) solution in Hank’s buffer (136 mM NaCl, 4.2 mM Na2HPO4, 4.4 mM KH2PO4, 5.4 mM KCl, 4.1 mM NaHCO3, pH 7.2, supplemented with 20 mM D-glucose) was added to each well of the plate, that was then incubated for 4 h at 37 °C and 5% CO2. The purple formazan crystals were dissolved using acidified 2-propanol and a microplate reader (Infinite M200; Tecan, Salzburg, Austria) was used to measure the absorbance of each well at 570 nm. The percentage of cell viability was calculated compared to the control, which consisted of cells without any peptide treatment (corresponding to 100% viability) and all data represent the mean of three independent experiments ± SEM.

[13] = test system: human keratinocytes (HaCaT cells); type: cell-based
Procedure: as §2

[14] = in vitro; type: in vitro ADME
Procedure: Peptide stability was evaluated by modifying previously described procedures. , The assays were performed in human serum and in the presence of proteolytic enzymes such as trypsin and chymotrypsin. For human serum stability, 2 mM peptide stock solutions were prepared in water and mixed with human serum (from male AB plasma, USA origin, sterile-filtered, Merck/Sigma-Aldrich, USA) to obtain a final concentration of 200 μM [human plasma/stock solution (9:1, v/v)]. The mixtures were incubated at 37 ± 1 °C, and 50 μL aliquots were taken at predetermined time intervals (0, 1, 2, 4, 8, and 24 h). Protease activity was quenched by adding 100 μL of acetonitrile (MeCN). The resulting cloudy suspensions were cooled to 4 °C for 30 min and centrifugated at 12,000 rpm for 10 min to remove the serum proteins. Then, the supernatants were analyzed by analytical HPLC (Shimadzu Nexera Liquid Chromatograph LC-30AD) which was equipped with a Phenomenex Kinetex reversed-phase column (C18, 5 μm, 100 Å, 150 mm × 4.6 mm) with a flow rate of 1 mL/min using a gradient of MeCN (0.1% TFA) in water (0.1% TFA), from 10 to 70% over 15 min, and UV detection at 220 nm. For enzyme stability, each peptide peptide (200 μM) was incubated with trypsin (0.5 μM) in PBS 1× (pH 7.2) or with chymotrypsin (0.005 μM) in Tris–HCl (100 mM, pH 7.8). Samples (50 μL) were collected at 0, 1, 2, 4, and 24 h, quenched with 0.5% TFA in water, and analyzed by HPLC under chromatographic conditions as described above. All experiments were conducted in triplicate. The percentage of intact peptides at each time point was determined by integrating the corresponding HPLC peak areas.

[15] = type: cell-based
Procedure: as §2

[16] = isolated enzyme trypsin, pH 7.2

Structure (SMILES) | helicity [1] [%] | MIC [2] [µM] | MIC [4] [µM] | MIC [5] [µM] | MIC [6] [µM] | MIC [7] [µM] | MIC [8] [µM] | MIC [9] [µM] | MIC [10] [µM] | MIC [11] [µM] | CC50 at 24 h [12] [µM] | viability at 2 h, 6.25 µM ([12]; Cell viability (%)) [%] | viability at 2 h, 12.5 µM ([12]; Cell viability (%)) [%] | viability at 2 h, 25 µM ([12]; Cell viability (%)) [%] | viability at 2 h, 50 µM ([12]; Cell viability (%)) [%] | viability at 2 h, 100 µM ([12]; Cell viability (%)) [%] | viability at 24 h, 3.12 µM ([12]; Cell viability (%)) [%] | viability at 24 h, 6.25 µM ([12]; Cell viability (%)) [%] | viability at 24 h, 12.5 µM ([12]; Cell viability (%)) [%] | viability at 24 h, 25 µM ([12]; Cell viability (%)) [%] | also measured
CC[C@H](C)[C@H](NC(=O)[C@H](CCCNC(=N)N)NC(=O)[C@@H]1CCCCNC(=N)NCCCC[C@H](NC(=O)[C@H](Cc2ccccc2)NC(=O)[C@H](Cc2c[nH]c3ccccc23)NC(=O)[C@@H]2CCCN2C(=O)[C@@H](NC(=O)[C@@H](N)Cc2ccccc2)C(C)C)C(=O)N[C@@H](CCCCN)C(=O)N[C@@H](Cc2ccccc2)C(=O)N[C@H](CC(C)C)C(=O)N1)C(=O)N[C@@H](CC(C)C)C(N)=O [Peptide 11, FVPWF{KKFlK}RIL] | 76 | 1.56 (≈ 2.72 µg/mL) | 3.12 (≈ 5.45 µg/mL) | 12.5 (≈ 21.8 µg/mL) | 3.12 (≈ 5.45 µg/mL) | 1.56 (≈ 2.72 µg/mL) | 50 (≈ 87.3 µg/mL) | 1.56 (≈ 2.72 µg/mL) | 12.5 (≈ 21.8 µg/mL) | 6.25 (≈ 10.9 µg/mL) | 21.3 | 98 | 86 | 57 | 35 | 10 | 98 ± 4 | 97 ± 3 | 87 ± 3 | 35 ± 3 | MIC [3]: 50 µM (≈ 87.3 µg/mL); viability at 24 h, 50 µM ([12]; Cell viability (%)): 5 ± 3%; viability at 24 h, 100 µM ([12]; Cell viability (%)): 2 ± 1%; cytotoxicity (in words) [13]: Low cytotoxicity (up to 25 μM)
CC[C@H](C)[C@H](NC(=O)[C@H](CCCNC(=N)N)NC(=O)[C@H]1CCCCNC(=N)NCCCC[C@H](NC(=O)[C@H](Cc2ccccc2)NC(=O)[C@H](Cc2c[nH]c3ccccc23)NC(=O)[C@@H]2CCCN2C(=O)[C@@H](NC(=O)[C@@H](N)Cc2ccccc2)C(C)C)C(=O)N[C@@H](CCCCN)C(=O)N[C@@H](Cc2ccccc2)C(=O)N[C@H](CC(C)C)C(=O)N1)C(=O)N[C@@H](CC(C)C)C(N)=O [Peptide 12, FVPWF{KKFlk}RIL] | 63 | 0.39 (≈ 0.681 µg/mL) | 6.25 (≈ 10.9 µg/mL) | 3.12 (≈ 5.45 µg/mL) | 1.56 (≈ 2.72 µg/mL) | 1.56 (≈ 2.72 µg/mL) | 12.5 (≈ 21.8 µg/mL) | 1.56 (≈ 2.72 µg/mL) | 6.25 (≈ 10.9 µg/mL) | 6.25 (≈ 10.9 µg/mL) | 19.6 | 103 | 88 | 47 | 11 | 10 | 100 ± 1 | 101 ± 2 | 90 ± 4 | 28 ± 4 | remaining at 4 h, 200 μM ([14]; isolated enzyme chymotrypsin, pH 7.8): ~40%; remaining at 4 h, 200 μM [14, 16]: ~80%; remaining at 24 h, 200 μM [14, 16]: ~35%; viability at 2 h, 3.12 µM ([15]; Cell viability (%)): 106%; viability at 2 h, 6.25 µM ([15]; Cell viability (%)): 104%; viability at 2 h, 12.5 µM ([15]; Cell viability (%)): 56%; viability at 2 h, 25 µM ([15]; Cell viability (%)): 14%; viability at 2 h, 50 µM ([15]; Cell viability (%)): 4%; viability at 2 h, 100 µM ([15]; Cell viability (%)): 4%; viability at 24 h, 3.12 µM ([15]; Cell viability (%)): 93%; viability at 24 h, 6.25 µM ([15]; Cell viability (%)): 86%; viability at 24 h, 12.5 µM ([15]; Cell viability (%)): 66%; viability at 24 h, 25 µM ([15]; Cell viability (%)): 14%; viability at 24 h, 100 µM ([15]; Cell viability (%)): 0%; viability at 12.5 µM ([15]; cell viability): ~60%; viability at 2 h, 3.12 µM ([12]; Cell viability (%)): 101%; viability at 24 h, 50 µM ([12]; Cell viability (%)): 2 ± 1%; viability at 24 h, 100 µM ([12]; Cell viability (%)): 3 ± 1%
